Assay results taken from US11331376B2, “Oral administration of unstable or poorly-absorbed drugs” (InnoPharmax, Inc., priority 2014, dated 2022).

What was measured:
[1] = system: STZ-induced diabetic mice; test: In vivo hypoglycemic study, blood glucose after oral gavage in STZ-induced diabetic mice; design: species or system male C57BL/6JNarl mice
Description: Diabetes was induced in male C57BL/6JNarl mice (8 weeks age, around 20 grams body weight) by two tail vein injections of streptozotocin (STZ) (first: 75 mg/kg, second: 150 mg/kg). Induction of diabetes in mice was verified by measuring glucose concentration in a blood sample that was obtained from the tail vein. […] An composition containing 200 IU/kg of insulin was administered by oral gavage to each of eight STZ-induced diabetic mice in three groups (i.e., 24 mice total). A first group each received free non-modified insulin suspended in about 160-230 microliters (depending on animal weight) of a 3.78% (w/w) NaHCO3 antacid solution. A second group each received insulin in the form of Formulation 1 suspended in about 160-230 microliters of phosphate-buffered saline (PBS). A third group received Formulation 1 insulin in the form of Formulation 1 suspended in about 160-230 microliters of a 3.78% (w/w) NaHCO3 antacid solution (i.e., a ten-fold dilution of Formulation 1). […] Blood samples were drawn from each mouse following gavage, and blood glucose levels in those samples were determined. […] Drug remaining in the formulation was analyzed, and in vivo potency was also assessed by administering insulin formulation into streptozotocin-induced diabetic mice and measuring blood glucose with a glucometer.

Description for Caco-2 cell monolayers: Caco-2 cells were cultured at 37±2 degrees Celsius in minimum essential medium (MEM) with Eagles salt and 1-glutamine supplemented with 15% fetal bovine serum, with 1% of non-essential amino acid, and with 1% of antibiotic-antimycotic in a incubator under a 5% carbon dioxide atmosphere to simulate intestinal lining cells.
At time zero, medium on one face of the cell monolayer was replaced by 0.5 milliliter of a solution that included one of Formulation 1, 2, or 3 or of insulin not incorporated into a SMEDDS-containing formulation. The solution was diluted ten-fold with medium (i.e., one part insulin-containing solution and nine parts buffer) prior to application to the monolayer. Thirty minutes following this replacement, insulin content at the basolateral face of the monolayer was analyzed by HPLC. The permeability coefficient (Papp) was calculated from the following equation: Papp=(dQ/dt)/(C0×area), where dQ/dt is the linear appearance rate obtained from the profile of the transported amount of the substrate against the time (measured in micrograms per second); C0 is a measured initial concentration in the donor compartment (measured in micrograms per milliliter), and “area” is the membrane surface area of the cell monolayer.

free insulin: non-modified human insulin not combined with a SMEDDS-containing composition
blood glucose levels at any time point ([1]; 200 IU/kg free insulin solution by oral gavage): No significant differences in the blood glucose levels
blood glucose levels over study period ([1]; 200 IU/kg oral gavage, free insulin in 3.78% NaHCO3 antacid solution): did not vary significantly
trans-monolayer transport of insulin (Caco-2 cell monolayers): No trans-monolayer transport
